Laboratory results published in patent publication US20130303532A1, “IMIDAZOPYRAZINES FOR USE AS MPS-1 AND TKK INHIBITORS IN THE TREATMENT HYPERPROLIFERATIVE DISORDERS” (BAYER INTELLECTUAL PROPERTY GmbH, priority 2010, published 2013).
Read-outs that look alike come from different tables or passages of the source.

Target: T1, human kinase Mps-1 (Homo sapiens, UniProt P33981)
T1 construct: N-terminally GST-tagged human full length recombinant Mps-1 kinase; GST (N); purchased Invitrogen, Karslruhe, Germany PV4071
T1 sequence (P33981 1-857): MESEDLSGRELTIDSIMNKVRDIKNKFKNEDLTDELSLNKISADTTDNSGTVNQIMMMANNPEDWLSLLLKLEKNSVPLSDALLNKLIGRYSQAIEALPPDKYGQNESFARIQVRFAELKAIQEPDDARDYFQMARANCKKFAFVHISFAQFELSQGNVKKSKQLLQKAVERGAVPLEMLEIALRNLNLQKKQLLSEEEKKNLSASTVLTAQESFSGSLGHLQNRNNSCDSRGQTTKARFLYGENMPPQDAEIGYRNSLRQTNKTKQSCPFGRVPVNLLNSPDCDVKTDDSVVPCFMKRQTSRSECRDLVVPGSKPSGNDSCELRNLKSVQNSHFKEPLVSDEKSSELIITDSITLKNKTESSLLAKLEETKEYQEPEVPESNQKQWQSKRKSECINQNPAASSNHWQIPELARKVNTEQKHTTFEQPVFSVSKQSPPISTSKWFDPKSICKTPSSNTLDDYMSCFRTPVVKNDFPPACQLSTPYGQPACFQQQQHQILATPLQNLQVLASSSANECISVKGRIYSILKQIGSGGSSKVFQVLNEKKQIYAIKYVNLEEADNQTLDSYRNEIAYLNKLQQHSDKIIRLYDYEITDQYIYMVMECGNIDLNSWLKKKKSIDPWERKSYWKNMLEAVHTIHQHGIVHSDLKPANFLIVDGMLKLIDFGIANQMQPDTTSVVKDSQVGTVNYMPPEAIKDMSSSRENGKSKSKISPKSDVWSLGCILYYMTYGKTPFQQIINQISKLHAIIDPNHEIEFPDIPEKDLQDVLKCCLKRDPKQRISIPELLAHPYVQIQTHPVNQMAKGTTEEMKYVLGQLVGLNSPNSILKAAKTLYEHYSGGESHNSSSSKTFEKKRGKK
Assay: Mps-1 kinase assay (TR-FRET)
Format: biochemical
Conditions: N-terminally GST-tagged human full length recombinant Mps-1, 10 μM ATP, 1 μM biotinylated peptide substrate, 60 min at 22° C.

| SMILES | IC50 (read-out: Mps1 IC50) | IC50 (Mps1 IC50 [nM]) |
| --- | --- | --- |
| CCNc1nccn2c(-c3ccc(C(=O)NC4CC4)cc3)cnc12 [Example 7-10, N-cyclopropyl-4-[8-(ethylamino)imidazo[1,2-a]pyrazin-3-yl]benzamide] | 115 nM | – |
| COc1cc(CNc2nccn3c(-c4ccc(C(=O)NC5CC5)cc4)cnc23)cc(OC)c1OC [Example 7-13, N-cyclopropyl-4-{8-[(3,4,5-trimethoxybenzyl)amino]imi-dazo[1,2-a]pyrazin-3-yl}benzamide] | – | 429 nM |
| Cc1ccccc1CNc1nccn2c(-c3ccc(C(=O)NC4CC4)cc3)cnc12 [Example 7-15, N-cyclopropyl-4-{8-[(2-methylbenzyl)amino]imi-dazo[1,2-a]pyrazin-3-yl}benzamide] | – | 88.8 nM |
| CC(=O)NCCNc1nccn2c(-c3ccc(C(=O)NC4CC4)cc3)cnc12 [Example 7-16, 4-(8-{[2-(acetylamino)ethyl]ami-no}imidazo[1,2-a]pyrazin-3-yl)-N-cyclopropylbenzamide] | 961 nM | – |
| O=C(NC1CC1)c1ccc(-c2cnc3c(NCC(O)COc4ccccc4)nccn23)cc1 (stereo not shown) [Example 7-17, N-cyclopropyl-4-{8-[(2-hydroxy-3-phenoxypropyl)amino]imi-dazo[1,2-a]pyrazin-3-yl}benzamide] | – | 412 nM |
| O=C(NC1CC1)c1ccc(-c2cnc3c(NCc4ccc5c(c4)OCO5)nccn23)cc1 [Example 7-18, 4-{8-[(1,3-benzodioxol-5-ylmethyl)amino]imidazo[1,2-a]pyrazin-3-yl}-N-cyclopropylbenzamide] | 28.4 nM | – |
| CC(C)(C)CNc1nccn2c(-c3ccc(C(=O)NC4CC4)cc3)cnc12 [Example 7-20, N-cyclopropyl-4-{8-[(2,2-dimethylpropyl)amino]imi-dazo[1,2-a]pyrazin-3-yl}benzamide] | – | 30.2 nM |
| O=C(NC1CC1)c1ccc(-c2cnc3c(NCCc4cccs4)nccn23)cc1 [Example 7-21, N-cyclopropyl-4-(8-{[2-(thiophen-2-yl)ethyl]ami-no}imidazo[1,2-a]pyrazin-3-yl)benzamide] | 42.3 nM | – |
| Cc1ccc(CNc2nccn3c(-c4ccc(C(=O)NC5CC5)cc4)cnc23)cc1 [Example 7-22, N-cyclopropyl-4-{8-[(4-methylbenzyl)amino]imi-dazo[1,2-a]pyrazin-3-yl}benzamide] | – | 21 nM |
| O=C(NC1CC1)c1ccc(-c2cnc3c(NCCc4cccnc4)nccn23)cc1 [Example 7-23, N-cyclopropyl-4-(8-{[2-(pyridin-3-yl)ethyl]amino}imidazo[1,2-a]pyrazin-3-yl)benzamide] | 244 nM | – |
| O=C(NC1CC1)c1ccc(-c2cnc3c(NCCCc4ccccc4)nccn23)cc1 [Example 7-24, N-cyclopropyl-4-{8-[(3-phenylpropyl)amino]imi-dazo[1,2-a]pyrazin-3-yl}benzamide] | – | 90.1 nM |
| NS(=O)(=O)c1ccc(CCNc2nccn3c(-c4ccc(C(=O)NC5CC5)cc4)cnc23)cc1 [Example 7-27, N-cyclopropyl-4-(8-{[2-(4-sulfamoylphenyl)ethyl]ami-no}imidazo[1,2-a]pyrazin-3-yl)benzamide] | 97.6 nM | – |
| O=C(NC1CC1)c1ccc(-c2cnc3c(NCCCN4CCCC4=O)nccn23)cc1 [Example 7-28, N-cyclopropyl-4-(8-{[3-(2-oxopyrrolidin-1-yl)propyl]amino}imi-dazo[1,2-a]pyrazin-3-yl)benzamide] | – | 1270 nM |
| Cc1cccc(CNc2nccn3c(-c4ccc(C(=O)NC5CC5)cc4)cnc23)c1 [Example 7-29, N-cyclopropyl-4-{8-[(3-methylbenzyl)amino]imi-dazo[1,2-a]pyrazin-3-yl}benzamide] | – | 100 nM |
| O=C(NC1CC1)c1ccc(-c2cnc3c(NCc4ccc(F)cc4)nccn23)cc1 [Example 7-31, N-cyclopropyl-4-{8-[(4-fluorobenzyl)amino]imi-dazo[1,2-a]pyrazin-3-yl}benzamide] | – | 17.4 nM |
| NS(=O)(=O)CCNc1nccn2c(-c3ccc(C(=O)NC4CC4)cc3)cnc12 [Example 7-32, N-cyclopropyl-4-{8-[(2-sulfamoylethyl)amino]imi-dazo[1,2-a]pyrazin-3-yl}benzamide] | – | 57.2 nM |
| O=C(NC1CC1)c1ccc(-c2cnc3c(NCc4cccc(F)c4)nccn23)cc1Cl [Example 7-33, 2-chloro-N-cyclopropyl-4-{8-[(3-fluorobenzyl)amino]imi-dazo[1,2-a]pyrazin-3-yl}benzamide] | – | 200 nM |

| SMILES | IC50 (read-out: Mps1 IC50) | IC50 (Mps1 IC50 [nM]) |
| --- | --- | --- |
| O=C(NC1CC1)c1ccc(-c2cnc3c(NCC4CCCO4)nccn23)cc1Cl (stereo not shown) [Example 7-34, 2-chloro-N-cyclopropyl-4-{8-[(tetrahydrofuran-2-ylmethyl)amino]imidazo[1,2-a]pyrazin-3-yl}benzamide] | 211 nM | – |
| O=C(NC1CC1)c1ccc(-c2cnc3c(NCCCN4CCCC4=O)nccn23)cc1Cl [Example 7-35, 2-chloro-N-cyclopropyl-4-(8-{[3-(2-oxopyrrolidin-1-yl)propyl]amino}imidazo[1,2-a]pyrazin-3-yl)benzamide] | 1970 nM | – |
| COCCNc1nccn2c(-c3ccc(C(=O)NC4CC4)c(Cl)c3)cnc12 [Example 7-36, 2-chloro-N-cyclopropyl-4-{8-[(2-methoxyethyl)amino]imi-dazo[1,2-a]pyrazin-3-yl}benzamide] | – | 593 nM |
| O=C(NC1CC1)c1ccc(-c2cnc3c(NCc4ccccc4F)nccn23)cc1Cl [Example 7-37, 2-chloro-N-cyclopropyl-4-{8-[(2-fluorobenzyl)amino]imi-dazo[1,2-a]pyrazin-3-yl}benzamide] | – | 93.8 nM |
| O=C(NC1CC1)c1ccc(-c2cnc3c(NCc4ccc(F)cc4)nccn23)cc1Cl [Example 7-38, 2-chloro-N-cyclopropyl-4-{8-[(4-fluorobenzyl)amino]imi-dazo[1,2-a]pyrazin-3-yl}benzamide] | – | 112 nM |
| O=C(NC1CC1)c1ccc(-c2cnc3c(NCCCCO)nccn23)cc1Cl [Example 7-39, 2-chloro-N-cyclopropyl-4-{8-[(4-hydroxybutyl)amino]imi-dazo[1,2-a]pyrazin-3-yl}benzamide] | – | 239 nM |
| O=C(NC1CC1)c1ccc(-c2cnc3c(NCc4ccccc4)nccn23)cc1Cl [Example 7-40, 4-[8-(benzylamino)imidazo[1,2-a]pyrazin-3-yl]-2-chloro-N-cyclopropylbenzamide] | 64.6 nM | – |
| CCNc1nccn2c(-c3ccc(C(=O)NC4CC4)c(Cl)c3)cnc12 [Example 7-42, 2-chloro-N-cyclopropyl-4-[8-(ethylamino)imidazo[1,2-a]pyrazin-3-yl]benzamide] | 17000 nM | – |
| O=C(NC1CC1)c1ccc(-c2cnc3c(NCCCO)nccn23)cc1Cl [Example 7-43, 2-chloro-N-cyclopropyl-4-{8-[(3-hydroxypropyl)amino]imi-dazo[1,2-a]pyrazin-3-yl}benzamide] | – | 430 nM |
| CCCCNc1nccn2c(-c3ccc(C(=O)NC4CC4)c(Cl)c3)cnc12 [Example 7-44, 4-[8-(butylamino)imidazo[1,2-a]pyrazin-3-yl]-2-chloro-N-cyclopropylbenzamide] | 54.2 nM | – |
| CC(=O)NCCNc1nccn2c(-c3ccc(C(=O)NC4CC4)c(Cl)c3)cnc12 [Example 7-45, 4-(8-{[2-(acetylamino)ethyl]ami-no)imidazo[1,2-a]pyrazin-3-yl)-2-chloro-N-cyclopropylbenzamide] | 1750 nM | – |
| O=C(NC1CC1)c1ccc(-c2cnc3c(NCC4CC4)nccn23)cc1Cl [Example 7-46, 2-chloro-N-cyclopropyl-4-{8-[(cyclopropylmethyl)ami-no]imidazo[1,2-a]pyrazin-3-yl}benzamide] | 73.1 nM | – |
| O=C(NC1CC1)c1ccc(-c2cnc3c(NCc4ccccn4)nccn23)cc1Cl [Example 7-47, 2-chloro-N-cyclopropyl-4-{8-[(pyridin-2-ylmethyl)amino]imidazo[1,2-a]pyrazin-3-yl}benzamide] | 1190 nM | – |
| O=C(NC1CC1)c1ccc(-c2cnc3c(NCc4cccnc4)nccn23)cc1Cl [Example 7-48, 2-chloro-N-cyclopropyl-4-{8-[(pyridin-3-ylmethyl)amino]imidazo[1,2-a]pyrazin-3-yl}benzamide] | 513 nM | – |
| O=C(NC1CC1)c1ccc(-c2cnc3c(NCc4ccncc4)nccn23)cc1Cl [Example 7-49, 2-chloro-N-cyclopropyl-4-{8-[(pyridin-4-ylmethyl)amino]imidazo[1,2-a]pyrazin-3-yl}benzamide] | 387 nM | – |
| O=C(NC1CC1)c1ccc(-c2cnc3c(NCc4ccco4)nccn23)cc1Cl [Example 7-50, 2-chloro-N-cyclopropyl-4-{8-[(furan-2-ylmethyl)amino]imi-dazo[1,2-a]pyrazin-3-yl}benzamide] | – | 209 nM |
| CC(C)CNc1nccn2c(-c3ccc(C(=O)NC4CC4)c(Cl)c3)cnc12 [Example 7-51, 2-chloro-N-cyclopropyl-4-{8-[(2-methylpropyl)amino]imi-dazo[1,2-a]pyrazin-3-yl}benzamide] | – | 15.7 nM |
